Measurements from patent US11980596B2 (priority 2017, dated 2024).

Tested on: subjects with MDD at imminent risk for suicide
[1] = esketamine 84 mg, double-blind phase, N = 35
[2] = esketamine 84 mg, follow up phase, N = 27

Procedure: The study consisted of a screening evaluation performed within 24 hours (or up to 48 hours upon consultation with the Sponsor's medical monitor) prior to Day 1 dose, immediately followed by a 25-day double-blind treatment phase (Day 1 to 25) with twice a week dosing, and a 56-day follow up phase (Day 26 to Day 81). The study was designed as a POC study and therefore a two-sided 0.20 significance level was used.
Among 68 randomized subjects, 66 were included in the safety analysis set (defined as receiving at least one dose of study medication in the double-blind phase). […] All safety subjects (N=66) were included in the intent-to-treat (ITT) analysis set (defined as receiving at least one dose of study medication during the double-blind phase and having both the baseline and the Day 1, 4-hour postdose evaluation for the MADRS total score). Forty-nine subjects were included in the safety (FU) analysis set (defined as all subjects who have at least 1 visit during the follow up phase).

Structure (SMILES): CN[C@]1(c2ccccc2Cl)CCCCC1=O [esketamine, (S)-2-(2-chlorophenyl)-2-(methylamino)cyclohexanone]
- TEAE leading to study discontinuation: Dysgeusia [1]: 1 (2.9%) subjects (%)
- TEAE leading to study discontinuation: Dyspnea [1]: 1 (2.9%) subjects (%)
- TEAE leading to study discontinuation: Gastrointestinal disorders [1]: 1 (2.9%) subjects (%)
- TEAE leading to study discontinuation: Nausea [1]: 1 (2.9%) subjects (%)
- TEAE leading to study discontinuation: Nervous system disorders [1]: 2 (5.7%) subjects (%)
- TEAE leading to study discontinuation: Panic attack [1]: 0 subjects (%)
- TEAE leading to study discontinuation: Psychiatric disorders [1]: 2 (5.7%) subjects (%)
- TEAE leading to study discontinuation: Respiratory, thoracic and mediastinal disorders [1]: 1 (2.9%) subjects (%)
- TEAE leading to study discontinuation: Ventricular extrasystoles [1]: 1 (2.9%) subjects (%)
- Total no. subjects with TEAE [1]: 33
- Total no. subjects with TEAE leading to study discontinuation [1]: 5 (14.3%) subjects (%)
- Total no. subjects with a serious TEAE [1]: 4 (11.4%) subjects (%)
- Total subjects with TEAE, % of subjects [1]: (94.3%)
- Possibly related TEAE (esketamine 84 mg, double-blind phase, N = 35, possible, probable, very likely): 29 (82.9%) subjects (%)
- AE Abdominal pain, % of subjects [2]: (3.7%)
- AE Abdominal pain, no. subjects [2]: 1
- AE Abdominal tenderness, % of subjects [2]: (3.7%)
- AE Abdominal tenderness, no. subjects [2]: 1
- AE Aphthous ulcer, no. subjects [2]: 0
- AE Back pain, % of subjects [2]: (3.7%)
- AE Back pain, no. subjects [2]: 1
- AE Bronchitis, no. subjects [2]: 0
- AE Cellulitis, no. subjects [2]: 0
- AE Cogwheel rigidity, % of subjects [2]: (3.7%)
- AE Cogwheel rigidity, no. subjects [2]: 1
- AE Contusion, % of subjects [2]: (3.7%)
- AE Contusion, no. subjects [2]: 1
- AE Depressed mood, no. subjects [2]: 0
- AE Depression, % of subjects [2]: (3.7%)
- AE Depression, no. subjects [2]: 1
- AE Diarrhea, % of subjects [2]: (3.7%)
- AE Diarrhea, no. subjects [2]: 1
- AE Dizziness, % of subjects [2]: (3.7%)
- AE Dizziness, no. subjects [2]: 1
- AE Drug hypersensitivity, no. subjects [2]: 0
- AE Dry mouth, % of subjects [2]: (7.4%)
- AE Dry mouth, no. subjects [2]: 2
- AE Dysgeusia, % of subjects [2]: (3.7%)
- AE Dysgeusia, no. subjects [2]: 1
- AE Ear and labyrinth disorders, no. subjects [2]: 0
- AE Ear infection, % of subjects [2]: (3.7%)
- AE Ear infection, no. subjects [2]: 1
- AE Epistaxis, % of subjects [2]: (3.7%)
- AE Epistaxis, no. subjects [2]: 1
- AE Flank pain, % of subjects [2]: (3.7%)
- AE Flank pain, no. subjects [2]: 1
- AE Folliculitis, no. subjects [2]: 0
- AE Gastrointestinal disorders, % of subjects [2]: (22.2%)
- AE Gastrointestinal disorders, no. subjects [2]: 6
- AE Headache, % of subjects [2]: (7.4%)
- AE Headache, no. subjects [2]: 2
- AE Immune system disorders, no. subjects [2]: 0
- AE Infections and infestations, % of subjects [2]: (11.1%)
- AE Infections and infestations, no. subjects [2]: 3
- AE Influenza, no. subjects [2]: 0
- AE Injury, poisoning and procedural complications, % of subjects [2]: (7.4%)
- AE Injury, poisoning and procedural complications, no. subjects [2]: 2
- AE Insomnia, % of subjects [2]: (11.1%)
- AE Insomnia, no. subjects [2]: 3
- AE Intentional self-injury, % of subjects [2]: (3.7%)
- AE Intentional self-injury, no. subjects [2]: 1
- AE Loss of consciousness, % of subjects [2]: (3.7%)
- AE Loss of consciousness, no. subjects [2]: 1
- AE Meniere's disease, no. subjects [2]: 0
- AE Metabolism and nutrition disorders, no. subjects [2]: 0
- AE Migraine, % of subjects [2]: (3.7%)
- AE Migraine, no. subjects [2]: 1
- AE Musculoskeletal and connective tissue disorders, % of subjects [2]: (7.4%)
- AE Musculoskeletal and connective tissue disorders, no. subjects [2]: 2
- AE Musculoskeletal chest pain, % of subjects [2]: (3.7%)
- AE Musculoskeletal chest pain, no. subjects [2]: 1
- AE Musculoskeletal pain, % of subjects [2]: (3.7%)
- AE Musculoskeletal pain, no. subjects [2]: 1
- AE Nasal congestion, % of subjects [2]: (3.7%)
- AE Nasal congestion, no. subjects [2]: 1
- AE Nasopharyngitis, % of subjects [2]: (3.7%)
- AE Nasopharyngitis, no. subjects [2]: 1
- AE Nausea, no. subjects [2]: 0
- AE Neck pain, % of subjects [2]: (3.7%)
- AE Neck pain, no. subjects [2]: 1
- AE Nervous system disorders, % of subjects [2]: (22.2%)
- AE Nervous system disorders, no. subjects [2]: 6
- AE Night sweats, % of subjects [2]: (3.7%)
- AE Night sweats, no. subjects [2]: 1
- AE Panic reaction, no. subjects [2]: 0
- AE Pelvic pain, % of subjects [2]: (3.7%)
- AE Pelvic pain, no. subjects [2]: 1
- AE Pharyngitis, % of subjects [2]: (7.4%)
- AE Pharyngitis, no. subjects [2]: 2
- AE Polydipsia, no. subjects [2]: 0
- AE Procedural pain, no. subjects [2]: 0
- AE Psychiatric disorders, % of subjects [2]: (18.5%)
- AE Psychiatric disorders, no. subjects [2]: 5
- AE Rash, no. subjects [2]: 0
- AE Renal and urinary disorders, no. subjects [2]: 0
- AE Renal failure, no. subjects [2]: 0
- AE Reproductive system and breast disorders, % of subjects [2]: (3.7%)
- AE Reproductive system and breast disorders, no. subjects [2]: 1
- AE Respiratory, thoracic and mediastinal disorders, % of subjects [2]: (7.4%)
- AE Respiratory, thoracic and mediastinal disorders, no. subjects [2]: 2
- AE Restlessness, % of subjects [2]: (3.7%)
- AE Restlessness, no. subjects [2]: 1
- AE Road traffic accident, % of subjects [2]: (3.7%)
- AE Road traffic accident, no. subjects [2]: 1
- AE Sedation, % of subjects [2]: (3.7%)
- AE Sedation, no. subjects [2]: 1
- AE Self-injurious ideation, no. subjects [2]: 0
- AE Sexual dysfunction, no. subjects [2]: 0
- AE Skin and subcutaneous tissue disorders, % of subjects [2]: (3.7%)
- AE Skin and subcutaneous tissue disorders, no. subjects [2]: 1
- AE Somnolence, no. subjects [2]: 0
- AE Suicidal ideation, % of subjects [2]: (3.7%)
- AE Suicidal ideation, no. subjects [2]: 1
- AE Suicide attempt, no. subjects [2]: 0
- AE Tooth impacted, no. subjects [2]: 0
- AE Toothache, no. subjects [2]: 0
- AE Tremor, % of subjects [2]: (7.4%)
- AE Tremor, no. subjects [2]: 2
- AE Upper respiratory tract infection, % of subjects [2]: (3.7%)
- AE Upper respiratory tract infection, no. subjects [2]: 1
- AE Viral upper respiratory tract infection, no. subjects [2]: 0
- AE Vomiting, % of subjects [2]: (3.7%)
- AE Vomiting, no. subjects [2]: 1
- AE Vulvovaginal mycotic infection, % of subjects [2]: (3.7%)
- AE Vulvovaginal mycotic infection, no. subjects [2]: 1
- Serious adverse event: Cellulitis [2]: 0 subjects (%)
- Serious adverse event: Infections and infestations [2]: 0 subjects (%)
- Serious adverse event: Psychiatric disorders [2]: 1 (3.7%) subjects (%)
- Serious adverse event: Suicidal ideation [2]: 1 (3.7%) subjects (%)
- Serious adverse event: Suicide attempt [2]: 0 subjects (%)
- Total no. subjects with a serious adverse event [2]: 1 (3.7%) subjects (%)
- Total no. subjects with adverse events [2]: 13
- Total subjects with adverse events, % of subjects [2]: (48.1%)
- Suicide attempts (non-fatal) (follow up period): none
